Experimental data: patent publication US9572788B2, “Cell permeable inhibitors of anaphase promoting complex” (President and Fellows of Harvard College, priority 2014, dated 2017)

Experiments:
APC/C = assay: ^35S-labeled substrate degradation in mitotic Xenopus egg extract; type: biochemical; details: 200 μM
Procedure: Mitotic extracts were pretreated with DMSO or compounds for 10 min. Substrates were expressed and ^35S-methionine labeled using the TNT system from Promega and added to the extract at 10% final volume.
Substrates consisted of human full length cyclin B1, cyclin A2, securin, Nek2A, or an N-terminal fragment of human cyclin B1 (residues 1-88). Each substrate was amplified with primers by PCR to allow T7-dependent transcription of the PCR product. Substrates were expressed and labeled with ^35S-methionine (Perkin Elmer NEG709A500UC) using the TNT system from Promega. […] The in vitro-translation reaction was then added to the mitotic Xenopus extract at 10% final volume. Extracts were then incubated at 24° C., with shaking at 1250 rpm, with samples taken at indicated times. Reactions were quenched with SDS sample buffer and processed for SDS-PAGE and phosphoimaging (Bio-Rad PMI) and quantification was performed using Quantity One software (Bio-Rad).
A 35S-labeled cyclin B1 protein was expressed in reticulocyte lysate, and a 10% volume of this material was added to mitotically arrested Xenopus egg extract, in the presence of DMSO or different concentrations of inhibitors. Aliquots were taken at 0 and 20 minutes, and samples separated by SDS-PAGE and radioactivity measured by quantitative phosphorimager analysis.

U2OS-H2B-GFP cells = assay: Fluorescence live cell imaging with survival (Cox) analysis, U2OS; type: cell-based, human; details: proTAME 12 μM
Procedure: Mitotic duration and cell fate were determined by manual inspection of the movies and plotted as Kaplan-Meier curves. The hatch marks on the Kaplan-Meier curved indicate mitotic duration endpoints of censored cells. Includes the combined results of five independent experiments. […] Pairwise comparison between proTAME and proTAME+apcin-M tested using a Cox proportional hazards model stratified by date, using data from only the experimental blocks in which both proTAME and proTAME+apcin were tested.
Movies were manually analyzed using Nikon Elements software or Image J.
Plates were inserted into a covered chamber supplied with humidified 5% CO2 and mounted onto a motorized microscope stage (Prior Scientific). […] A Hamamatsu ORCA cooled CCD camera collected the images with 2×2 binning using Nikon Elements software (version 3.0). Movies were manually analyzed using Nikon Elements software or ImageJ. Mitotic duration was defined as the time from nuclear envelope breakdown until anaphase, in the case of normal mitosis, or until exit from prolonged mitosis as indicated by cytoplasmic blebbing accompanied by changes in chromatin as detected by H2B-GFP.
The Cox proportional hazards model is a semiparameteric approach to modeling time-to-event data, in which covariates are assumed to have constant proportional effects over time relative to a baseline hazard function that can take any form. In this case, stratification on “person” (the individual who analyzed the movie) and “date” (the date the assay was run) allow the baseline hazard function to differ across experimental blocks, but assume a fixed effect of treatment across experimental blocks. The model is thus: hi(t|Z=j)=hj(t)exp(β1×apcini+β2×apcinMi+β3×proTAMEi+β4×proTAMEi:apcinMi+β5×proTAMEi:apcini), j=1 . . . […] This model was fit separately to cells treated with control siRNA or Mad2 siRNA. All statistical analysis was carried out in R 3.0.0 using the functions available as part of the survival package.

RPE1-H2B-GFP cells = assay: Fluorescence live cell imaging with survival (Cox) analysis, RPE1; type: cell-based, human; details: proTAME 6 μM; for % rate of mitotic exit: relative to DMSO control, Cox model, apcin/apcin-M 25 μM; for Median mitotic duration: apcin or apcin-M 25 μM
Procedure: RPE1-H2B-GFP or U2OS-H2B-GFP cells were plated in 24-well glass-bottom plates 18-24 hours prior to siRNA transfection using RNAiMax (Invitrogen). After treatment with compound(s), DIC and GFP images were captured at 6-minute intervals for 45 hours. Movies were manually analyzed using Nikon Elements software or Image J.
RPE1-H2B-GFP or U2OS-H2B-GFP cells were plated in 24-well glass-bottom plates (Greiner BioOne, 662892) 18-24 hours prior to siRNA transfection using RNAiMax (Invitrogen). Plates were inserted into a covered chamber supplied with humidified 5% CO2 and mounted onto a motorized microscope stage (Prior Scientific). DIC and FITC images were captured at 6 minute intervals for 45 hours using a Nikon Ti inverted fluorescence microscope fitted with a 37° C. enclosed incubation chamber and using a 20× Plan Apo 0.75 NA objective lens. A Hamamatsu ORCA cooled CCD camera collected the images with 2×2 binning using Nikon Elements software (version 3.0). Movies were manually analyzed using Nikon Elements software or ImageJ. Mitotic duration was defined as the time from nuclear envelope breakdown until anaphase, in the case of normal mitosis, or until exit from prolonged mitosis as indicated by cytoplasmic blebbing accompanied by changes in chromatin as detected by H2B-GFP.
In order to detect differences in mitotic duration among cells in the live-cell imaging screen, a stratified Cox proportional hazards model (Cox, D. R. Regression models and life tables. J Royal Statistics Soc B34, 187-220, (1972)) was fit to censored mitotic duration times (where cells that are not observed exiting mitosis or dying in mitosis are censored at the last known time in mitosis). The Cox proportional hazards model is a semiparameteric approach to modeling time-to-event data, in which covariates are assumed to have constant proportional effects over time relative to a baseline hazard function that can take any form. In this case, stratification on “person” (the individual who analyzed the movie) and “date” (the date the assay was run) allow the baseline hazard function to differ across experimental blocks, but assume a fixed effect of treatment across experimental blocks. The model is thus: hi(t|Z=j)=hj(t)exp(β1×apcini+β2×apcinMi+β3×proTAMEi+β4×proTAMEi:apcinMi+β5×proTAMEi:apcini), j=1 . . . 4 where hi(t) is the hazard function of cell i at time t, hj(t) is the baseline hazard for strata j (with 4 levels, one for each person and date combination), apcini, proTAMEi, and apcinMi are indicator variables for presence or absence of the compounds apcin, proTAME, and apcin-M, respectively in cell i, proTAMEi:apcini is an indicator variable that is 1 if both proTAME and apcin are present in cell i, and 0 otherwise, and proTAMEi:apcinMi is a similar indicator variable for proTAME+apcin-M. In this model, […] represent the effects of apcin, apcin-M, and proTAME alone, while β4 and β5 represent the additional non-additive effect of the compounds beyond what is predicted from the combination of effects of the two compounds alone. This model was fit separately to cells treated with control siRNA or Mad2 siRNA. All statistical analysis was carried out in R 3.0.0 using the functions available as part of the survival package.
In this model, the β coefficients represent the log hazard ratios for exiting mitosis between treated and untreated cells. However, for ease of interpretation the β coefficients are exponentiated to convert them to normal hazard ratios, and then multiplied by 100 to convert to percentages relative to DMSO. These hazard ratios, which are referred to as mitotic exit rate, represent the relative probability that a treated cell in mitosis at time t will exit mitosis in the next time interval compared to an untreated cell.
For ease of interpretation, the treatment effects are presented relative to DMSO for all individual compounds and compound combinations. […]

APC/C-Cdc20 = APC/C-Cdc20 (Xenopus laevis, UniProt Q6DFD4); assay: Kinetics of APC/C-Cdc20-dependent ubiquitination of cyclin B1 N-terminal fragment; type: biochemical; details: methylated ubiquitin
Procedure: Measurements of kinetics of ubiquitination were performed using an N-terminal fragment of cyclin B1 and APC/C isolated from Xenopus extract, exactly as previously described (Zeng, X. & King, R. W. Nat Chem Biol 8, 383-392, (2012)).
Kinetic analysis of APC^Cdc20 reactions. Endogenous APC^Cdc20 was isolated from Xenopus extract as described above. The ubiquitination mixture was prepared as described in Cdc20 ubiquitination assay with the exception that 60 μM methylated ubiquitin was used in place of WT ubiquitin. CycB-NT was diluted into the mixture to final concentrations of 1 μM, 500 nM, 250 nM, 125 nM and 62.5 nM prior to the reaction. For each reaction, 2.5 μl beads were mixed with 20 μl ubiquitination mixture and left on a shaker at RT for 30 seconds. The reaction was stopped by adding 7 μl hot 4×LDS sample buffer (Invitrogen NP0007)+[…]. Band intensity of the mono-, di-, and tri-ubiquitinated cycB-NT was quantitated with Image J and fitted to a hyperbolic equation by nonlinear regression.

Xenopus APC = assay: ^3H-TAME binding assay in interphase extract; details: 200 nM ^3H-TAME
Text: The beads were washed quickly twice with XB high salt and twice with XB.

APC = APC (Xenopus laevis, UniProt A0A1L8ESF3); assay: Cyclin B1-luciferase reporter degradation (luciferase assay) in mitotic Xenopus egg extract; type: biochemical; details: mitotic Xenopus extract
APC, sequence (A0A1L8ESF3 entry or part of it): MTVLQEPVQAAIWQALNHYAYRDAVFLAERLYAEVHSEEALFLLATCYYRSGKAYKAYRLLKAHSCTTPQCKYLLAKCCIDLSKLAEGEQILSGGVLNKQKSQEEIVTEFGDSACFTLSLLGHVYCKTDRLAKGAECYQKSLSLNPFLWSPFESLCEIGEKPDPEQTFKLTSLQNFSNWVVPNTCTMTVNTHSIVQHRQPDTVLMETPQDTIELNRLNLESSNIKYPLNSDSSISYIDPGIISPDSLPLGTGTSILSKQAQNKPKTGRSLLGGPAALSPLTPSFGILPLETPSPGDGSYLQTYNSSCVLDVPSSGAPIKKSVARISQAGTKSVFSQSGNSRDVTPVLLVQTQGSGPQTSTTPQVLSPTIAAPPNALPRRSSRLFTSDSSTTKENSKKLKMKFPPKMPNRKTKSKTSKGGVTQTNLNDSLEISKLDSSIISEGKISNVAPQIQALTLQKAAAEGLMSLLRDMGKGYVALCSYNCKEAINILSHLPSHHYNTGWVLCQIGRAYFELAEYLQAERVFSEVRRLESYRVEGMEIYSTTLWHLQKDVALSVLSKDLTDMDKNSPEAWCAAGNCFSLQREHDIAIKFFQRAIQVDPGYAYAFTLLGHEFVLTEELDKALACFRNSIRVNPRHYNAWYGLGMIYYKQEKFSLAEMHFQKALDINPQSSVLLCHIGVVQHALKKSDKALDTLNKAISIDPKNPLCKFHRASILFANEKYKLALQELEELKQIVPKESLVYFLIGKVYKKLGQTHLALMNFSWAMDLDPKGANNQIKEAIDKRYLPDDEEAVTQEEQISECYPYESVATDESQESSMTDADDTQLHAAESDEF
APC, sequence (Q6DFD4 entry or part of it, further chain): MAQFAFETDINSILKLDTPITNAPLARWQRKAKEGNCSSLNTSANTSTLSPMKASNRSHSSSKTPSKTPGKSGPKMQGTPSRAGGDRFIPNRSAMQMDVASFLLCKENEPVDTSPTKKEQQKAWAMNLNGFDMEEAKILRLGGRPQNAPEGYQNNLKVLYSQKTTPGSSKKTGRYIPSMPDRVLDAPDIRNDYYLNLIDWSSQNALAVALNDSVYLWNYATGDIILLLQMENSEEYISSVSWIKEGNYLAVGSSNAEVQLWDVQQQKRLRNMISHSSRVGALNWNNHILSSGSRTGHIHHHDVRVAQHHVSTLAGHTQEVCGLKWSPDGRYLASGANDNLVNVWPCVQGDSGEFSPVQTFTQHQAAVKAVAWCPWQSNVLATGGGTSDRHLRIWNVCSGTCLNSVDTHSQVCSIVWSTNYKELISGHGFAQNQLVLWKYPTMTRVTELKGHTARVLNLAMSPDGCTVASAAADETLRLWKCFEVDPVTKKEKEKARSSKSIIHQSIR
Procedure: The extract was incubated at room temperature and 3 μL samples were taken at 0, 20, 40 and 60 min.

NCCCOC(=O)NC(Nc1ncccn1)C(Cl)(Cl)Cl (stereo not shown) [apcin-A]
Activity on proteolysis of N-terminal ^35S-labeled fragment of cyclin B1 relative to apcin (APC/C): reduced activity

Cc1ncc([N+](=O)[O-])n1CCOC(=O)NC(Nc1ncccn1)C(Cl)(Cl)Cl (stereo not shown) [apcin]
Median mitotic duration (U2OS-H2B-GFP cells; Table 7, apcin or apcin-M 25 μM): 24 | % rate of mitotic exit (U2OS-H2B-GFP cells; relative to DMSO control, Cox model, apcin/apcin-M 25 μM): 109.64% | % rate of mitotic exit (RPE1-H2B-GFP cells; Mad2 siRNA): 57.38% | Median mitotic duration (RPE1-H2B-GFP cells; Table 3, control siRNA): 24 | Median mitotic duration (RPE1-H2B-GFP cells; Table 3, mad2 siRNA): 19 | % rate of mitotic exit (RPE1-H2B-GFP cells; control siRNA): 82.87% | Effect on Km and kcat of APC-dependent ubiquitination (APC/C-Cdc20): caused a significant increase (p=0.0039) in the Km (Ki=23 μM) of the reaction but no reduction in kcat

COC(=O)[C@H](CCCNC(=N)N)NC(C)=O [AAME, Acetyl-L-Arginine Methyl Ester]
Competition with ^3H-TAME for binding to Xenopus APC (Xenopus APC): did not | Inhibition of cyclin B-luciferase proteolysis (APC): showed only low activity
